Assay results reported in patent US20090017010A1, “NOVEL ARTEMIS/DNA-DEPENDENT PROTEIN KINASE COMPLEX AND METHODS OF USE THEREOF” (University of Southern California, priority 2002, published 2009).
Values belong to the compound of their own block, whether it stands above or below them.

Columns and labels:
[1] = molecular target: T1, Artemis:DNA-PKcs complex (Homo sapiens, UniProt P78527); experiment: In vitro nuclease assay: effect of a DNA-PKcs inhibitor and of ATP analogs on hairpin opening; assay type: biochemical; details: for effect of DNA-PKcs (conferring hairpin opening activity on Artemis) when analog is used instead of ATP: 1 mM ATP analog, DFL16.1 hairpin, FIG. 5B lanes 5, 6
T1 construct: Native DNA-PKcs was purified as described (Chan et al., 1996) except that HeLa cells were used as the source; made in house; host or cells: Artemis-myc-His: transfected 293T cells (Ni-NTA, then anti-myc immunobeads); DNA-PKcs: endogenous protein purified from HeLa cells
T1 sequence (P78527 whole entry): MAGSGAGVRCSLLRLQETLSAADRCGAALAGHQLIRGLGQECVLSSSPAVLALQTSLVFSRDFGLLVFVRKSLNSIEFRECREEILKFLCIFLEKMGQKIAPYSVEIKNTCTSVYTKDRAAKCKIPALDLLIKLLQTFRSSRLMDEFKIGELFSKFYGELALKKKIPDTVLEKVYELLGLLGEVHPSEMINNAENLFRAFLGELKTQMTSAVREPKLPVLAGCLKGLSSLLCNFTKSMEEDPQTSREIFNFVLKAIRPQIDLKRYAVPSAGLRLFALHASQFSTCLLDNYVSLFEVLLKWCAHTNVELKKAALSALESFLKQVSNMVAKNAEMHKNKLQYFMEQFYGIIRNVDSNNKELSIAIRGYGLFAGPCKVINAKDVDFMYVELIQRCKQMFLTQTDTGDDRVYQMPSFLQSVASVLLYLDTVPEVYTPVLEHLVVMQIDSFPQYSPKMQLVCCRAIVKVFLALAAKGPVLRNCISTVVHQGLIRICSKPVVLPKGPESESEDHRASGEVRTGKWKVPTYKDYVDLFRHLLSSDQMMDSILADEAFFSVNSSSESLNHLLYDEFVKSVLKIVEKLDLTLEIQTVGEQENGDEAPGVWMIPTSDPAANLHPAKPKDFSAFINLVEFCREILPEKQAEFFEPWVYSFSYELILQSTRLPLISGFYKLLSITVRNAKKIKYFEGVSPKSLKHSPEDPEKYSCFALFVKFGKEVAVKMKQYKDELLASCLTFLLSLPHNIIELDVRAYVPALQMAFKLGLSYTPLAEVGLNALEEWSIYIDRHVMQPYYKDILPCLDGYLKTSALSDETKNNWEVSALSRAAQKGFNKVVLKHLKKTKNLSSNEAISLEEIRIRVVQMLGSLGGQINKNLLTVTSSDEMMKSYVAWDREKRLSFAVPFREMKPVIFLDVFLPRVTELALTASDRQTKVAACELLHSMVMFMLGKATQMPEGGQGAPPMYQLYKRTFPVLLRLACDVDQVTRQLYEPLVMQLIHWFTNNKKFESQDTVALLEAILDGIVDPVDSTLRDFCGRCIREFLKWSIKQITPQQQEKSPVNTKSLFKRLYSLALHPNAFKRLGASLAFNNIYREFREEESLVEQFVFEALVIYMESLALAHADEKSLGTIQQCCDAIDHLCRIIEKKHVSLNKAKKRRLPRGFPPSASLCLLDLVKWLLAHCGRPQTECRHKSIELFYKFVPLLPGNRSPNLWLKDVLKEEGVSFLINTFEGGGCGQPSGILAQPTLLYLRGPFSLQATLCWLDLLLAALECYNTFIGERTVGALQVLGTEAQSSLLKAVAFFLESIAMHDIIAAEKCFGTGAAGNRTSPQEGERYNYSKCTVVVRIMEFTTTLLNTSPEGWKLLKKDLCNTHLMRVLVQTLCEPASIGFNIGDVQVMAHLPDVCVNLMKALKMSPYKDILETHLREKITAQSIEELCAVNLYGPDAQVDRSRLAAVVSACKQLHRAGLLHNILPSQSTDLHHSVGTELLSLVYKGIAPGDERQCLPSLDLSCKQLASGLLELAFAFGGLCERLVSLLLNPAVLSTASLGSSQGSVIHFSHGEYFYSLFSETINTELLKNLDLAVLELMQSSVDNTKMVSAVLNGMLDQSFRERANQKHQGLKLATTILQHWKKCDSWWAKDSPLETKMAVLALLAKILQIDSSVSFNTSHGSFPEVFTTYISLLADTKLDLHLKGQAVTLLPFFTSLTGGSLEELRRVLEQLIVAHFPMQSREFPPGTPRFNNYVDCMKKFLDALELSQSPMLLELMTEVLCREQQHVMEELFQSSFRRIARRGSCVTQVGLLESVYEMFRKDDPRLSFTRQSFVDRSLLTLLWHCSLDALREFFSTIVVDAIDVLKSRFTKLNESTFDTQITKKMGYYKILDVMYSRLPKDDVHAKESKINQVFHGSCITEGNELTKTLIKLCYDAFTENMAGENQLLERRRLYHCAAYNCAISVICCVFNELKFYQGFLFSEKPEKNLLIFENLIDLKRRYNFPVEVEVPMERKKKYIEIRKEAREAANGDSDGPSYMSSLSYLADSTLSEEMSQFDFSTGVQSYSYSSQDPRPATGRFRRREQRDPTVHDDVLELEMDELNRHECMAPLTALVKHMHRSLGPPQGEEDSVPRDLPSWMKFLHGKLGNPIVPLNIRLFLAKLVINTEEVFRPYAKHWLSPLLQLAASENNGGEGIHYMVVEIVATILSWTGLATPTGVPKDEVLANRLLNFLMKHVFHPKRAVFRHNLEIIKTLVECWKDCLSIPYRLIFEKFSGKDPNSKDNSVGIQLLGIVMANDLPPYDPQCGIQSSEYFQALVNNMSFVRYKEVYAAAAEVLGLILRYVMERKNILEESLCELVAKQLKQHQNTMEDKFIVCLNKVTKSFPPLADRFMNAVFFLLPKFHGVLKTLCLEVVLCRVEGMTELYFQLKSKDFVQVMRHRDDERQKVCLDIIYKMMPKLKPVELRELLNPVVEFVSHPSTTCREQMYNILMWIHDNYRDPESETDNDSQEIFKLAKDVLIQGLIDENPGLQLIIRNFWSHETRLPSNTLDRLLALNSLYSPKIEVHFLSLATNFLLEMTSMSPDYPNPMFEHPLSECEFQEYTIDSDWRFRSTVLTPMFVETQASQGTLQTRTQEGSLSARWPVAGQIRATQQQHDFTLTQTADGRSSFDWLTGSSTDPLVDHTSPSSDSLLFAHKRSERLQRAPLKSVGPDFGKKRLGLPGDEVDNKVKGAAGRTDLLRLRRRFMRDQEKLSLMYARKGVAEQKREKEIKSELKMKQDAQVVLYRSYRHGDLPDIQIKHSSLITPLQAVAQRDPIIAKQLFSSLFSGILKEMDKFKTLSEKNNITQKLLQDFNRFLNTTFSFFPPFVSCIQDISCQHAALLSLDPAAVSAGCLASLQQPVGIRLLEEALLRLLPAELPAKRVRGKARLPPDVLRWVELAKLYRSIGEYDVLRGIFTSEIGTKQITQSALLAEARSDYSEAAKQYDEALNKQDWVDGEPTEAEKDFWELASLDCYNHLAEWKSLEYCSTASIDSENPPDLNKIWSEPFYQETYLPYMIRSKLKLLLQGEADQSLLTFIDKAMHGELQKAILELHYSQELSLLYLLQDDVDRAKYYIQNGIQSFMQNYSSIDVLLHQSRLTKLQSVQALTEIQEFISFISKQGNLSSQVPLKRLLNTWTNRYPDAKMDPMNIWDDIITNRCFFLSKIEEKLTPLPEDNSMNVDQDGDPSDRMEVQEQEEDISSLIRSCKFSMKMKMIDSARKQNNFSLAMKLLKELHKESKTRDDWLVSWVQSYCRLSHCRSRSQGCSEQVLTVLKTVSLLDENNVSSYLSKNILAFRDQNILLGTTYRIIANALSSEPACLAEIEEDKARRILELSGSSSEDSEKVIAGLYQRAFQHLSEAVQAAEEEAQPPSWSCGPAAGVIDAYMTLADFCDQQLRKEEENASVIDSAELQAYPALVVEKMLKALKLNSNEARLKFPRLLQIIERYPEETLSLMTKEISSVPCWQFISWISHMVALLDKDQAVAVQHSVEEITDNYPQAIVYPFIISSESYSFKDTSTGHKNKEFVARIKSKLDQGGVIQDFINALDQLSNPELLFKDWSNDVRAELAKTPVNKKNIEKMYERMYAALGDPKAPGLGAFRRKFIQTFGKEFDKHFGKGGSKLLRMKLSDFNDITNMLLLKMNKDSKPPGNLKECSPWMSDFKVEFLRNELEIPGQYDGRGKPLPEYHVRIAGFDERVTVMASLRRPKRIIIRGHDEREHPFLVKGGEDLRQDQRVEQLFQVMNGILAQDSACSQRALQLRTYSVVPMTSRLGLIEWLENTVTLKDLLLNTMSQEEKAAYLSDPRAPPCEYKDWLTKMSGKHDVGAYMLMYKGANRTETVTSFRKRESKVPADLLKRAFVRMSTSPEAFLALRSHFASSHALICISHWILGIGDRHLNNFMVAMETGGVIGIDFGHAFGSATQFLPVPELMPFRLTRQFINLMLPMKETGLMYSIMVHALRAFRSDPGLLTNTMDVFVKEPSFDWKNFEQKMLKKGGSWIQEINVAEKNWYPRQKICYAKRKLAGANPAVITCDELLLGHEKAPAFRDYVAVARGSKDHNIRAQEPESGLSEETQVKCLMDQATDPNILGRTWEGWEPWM
T1 sequence (Q96SD1 whole entry partner): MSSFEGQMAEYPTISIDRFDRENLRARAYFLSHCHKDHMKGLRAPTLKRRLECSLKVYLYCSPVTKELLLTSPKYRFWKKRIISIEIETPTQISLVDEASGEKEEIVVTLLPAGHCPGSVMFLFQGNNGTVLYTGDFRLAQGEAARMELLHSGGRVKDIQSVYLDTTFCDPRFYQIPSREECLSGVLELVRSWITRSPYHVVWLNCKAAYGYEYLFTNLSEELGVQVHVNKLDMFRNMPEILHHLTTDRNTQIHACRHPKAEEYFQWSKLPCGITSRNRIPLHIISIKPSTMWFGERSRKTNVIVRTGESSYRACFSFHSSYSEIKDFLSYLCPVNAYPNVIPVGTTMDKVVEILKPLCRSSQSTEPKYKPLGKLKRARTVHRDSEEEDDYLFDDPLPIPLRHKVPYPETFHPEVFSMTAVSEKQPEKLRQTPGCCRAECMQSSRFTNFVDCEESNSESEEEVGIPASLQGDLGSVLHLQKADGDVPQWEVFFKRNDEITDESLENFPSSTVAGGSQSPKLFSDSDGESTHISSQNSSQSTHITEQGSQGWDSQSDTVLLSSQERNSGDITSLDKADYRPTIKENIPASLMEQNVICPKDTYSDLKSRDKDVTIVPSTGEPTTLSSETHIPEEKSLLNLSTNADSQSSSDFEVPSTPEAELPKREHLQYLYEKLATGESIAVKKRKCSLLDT
Method: (§1) Nuclease assays without RAGs were carried out in a total volume of 10 μL with a buffer composition of 25 mM Tris, pH 8.0, 10-50 mM NaCl or KCl, 10 mM MgCl2, 1 mM DTT, and 50 ng/μL of BSA unless otherwise specified. To the buffer mixture, Artemis was added to 2.75 pmol, and DNA-PKcs and Ku were added to 1.25 pmol each. 0.25 mM of ATP (or ADP, ATP-y-S, AMP-PNP) and […] of 35 bp DNA were included where DNA-PKcs was used. Reactions were incubated at 37° C. for 30 minutes. In reactions including DNA-PKcs inhibitors, reaction mixtures without the substrate were incubated on ice for 15 minutes before the addition of the substrate and the subsequent incubation at 37° C. In FIG. 7, pre-phosphorylation of Artemis-myc-His immunobeads was carried out under DNA-PK kinase assay conditions. After washing the treated immunobeads with buffer F for three times and the nuclease assay buffer for two times, the beads were used for the nuclease reactions. In the hairpin opening of RAG-generated hairpins (FIG. 8), the reactions contained 25 mM K-HEPES, pH 7.4, 50 mM KCl, 10 mM MgCl2, 1 mM DTT, 0.25 pmol of labeled 12-RSS double-stranded oligonucleotides (KY28/KY29) and an equal amount of unlabeled 23-RSS double-stranded oligonucleotides (KY36/KY37), 1 pmol of RAGs (assuming that the RAG complex consists of two RAG-1 and two RAG-2 subunits), 2 pmol of HMG1, 2.75 pmol of Artemis-myc-His, and 1.25 pmol of DNA-PKcs (with ATP and 35 bp DNA as described above). For the sequential reactions, substrates were incubated with RAG complex alone first at 37° C. for 60 minutes, extracted with or without phenol/chloroform, then Artemis-myc-His and DNA-PKcs were added, followed by another 30-minute incubation at 37° C. Reactions with the RAG complex, Artemis, and DNA-PKcs added simultaneously were incubated for 90 minutes at the same temperature. After incubation, reactions were stopped by adding an equal volume of formamide gel loading buffer and beating at 100° C. for 5 minutes. DNA was resolved on 12% denaturing polyacrylamide gels. […] Data was analyzed by ImageQuant software (v5.0). […]

[2] = tested on: 20 bp hairpin (DFL16.1); experiment: In vitro nuclease assay: hairpin opening by Artemis proteins; assay type: biochemical
Method: as §1

[3] = molecular target: dsDNA; details: read-out: equilibrium binding affinity for dsDNA; cited from earlier work

Compound: Artemis: full-length human Artemis with C-terminal myc-His tag, expressed in 293T cells, used on immunobeads as the enzyme
hairpin opening ([2]; Artemis alone, without DNA-PKcs, FIG. 5A lane 2): No hairpin opening
hairpins opened during the time interval ([2]; with DNA-PKcs present, 37° C., 30 minutes, FIG. 5A lanes 4-6, said to be probably an underestimation): about 40%

Compound: D165N: D165N point mutant of Artemis, same expression vector as wild type
hairpin opening activity ([2]; in the presence of DNA-PKcs): lacks any hairpin opening activity

Compound: DNA-PKcs: native catalytic subunit of DNA-dependent protein kinase, 469 kDa, purified from HeLa cells
Kd [3]: ~1 nM

Further lines, results first:

endonucleolytic activity on hairpins and 5′ ends, relative to ATP ([1]; ADP instead of ATP, 20 bp artificial GC hairpin with 6-nucleotide 5′ overhang, FIG. 7 lane 3): lower level of endonucleolytic activity
Compound: Nc1ncnc2c1ncn2[C@@H]1O[C@H](COP(=O)(O)OP(=O)(O)O)[C@@H](O)[C@H]1O [ADP]

effect of DNA-PKcs (conferring hairpin opening activity on Artemis) when analog is used instead of ATP [1]: largely suppressed
Compound: Nc1ncnc2c1ncn2[C@@H]1O[C@H](COP(=O)(O)OP(=O)(O)NP(=O)(O)O)[C@@H](O)[C@H]1O [AMP-PNP]

effect of DNA-PKcs (conferring hairpin opening activity on Artemis) when analog is used instead of ATP [1]: largely suppressed
Compound: Nc1ncnc2c1ncn2[C@@H]1O[C@H](COP(=O)(O)OP(=O)(O)OP(O)(O)=S)[C@@H](O)[C@H]1O [ATP-γ-S]
